Measurements from PubChem BioAssay AID1963870 (Molecular Pharmacology Branch, DTP, NCI, 2024).

Tested on: 292921-168-R-J2-PDC KRAS tumor spheroid viability
Assay: Anticancer human tumor 292921-168-R-J2-PDC patient-derived pancreatic carcinoma cell line growth inhibition [KRAS2]
Details: spheroids with HUVEC and MSC; for IC50: curve of first compound; for viability, T/C: stronger effect = lower value
Procedure, shortened: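 KRAS-mutant tumor cells were grown as spheroids with HUVEC endothelial cells and human MSCs as stroma. Targeted agents were tested alone and with KRAS pathway inhibitors. Doses started at or near clinical Cmax, or 10 microM, descending half-log.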
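Further: drug exposure lasted seven days after spheroids formed for three days.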
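Wherever viability, T/C is given: percent of DMSO vehicle control viability which is 100%.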

CC(=O)Nc1cccc(-n2c(=O)n(C3CC3)c(=O)c3c(Nc4ccc(I)cc4F)n(C)c(=O)c(C)c32)c1 + CC1OCC2(CCN(c3cnc(Sc4ccnc(N)c4Cl)c(N)n3)CC2)C1N
IC50 (second compound 0.1 µM): < 0.1 nM | IC50 (second compound 0.316 µM): < 0.1 nM | IC50 (second compound 1 µM): < 0.1 nM | IC50 (second compound 3.16 µM): < 0.1 nM | IC50 (second compound 10 µM): < 0.1 nM | viability, T/C (second compound 0.1 µM, first compound 0.0001 µM): 48.8% | viability, T/C (second compound 0.1 µM, first compound 0.000316 µM): 28.9% | viability, T/C (second compound 0.1 µM, first compound 0.001 µM): 18.2% | viability, T/C (second compound 0.1 µM, first compound 0.00316 µM): 14.6% | viability, T/C (second compound 0.1 µM, first compound 0.01 µM): 10.5% | viability, T/C (second compound 0.1 µM, first compound 0.0316 µM): 8.15% | viability, T/C (second compound 0.316 µM, first compound 0.0001 µM): 35.4% | viability, T/C (second compound 0.316 µM, first compound 0.000316 µM): 27.8% | viability, T/C (second compound 0.316 µM, first compound 0.001 µM): 15.6% | viability, T/C (second compound 0.316 µM, first compound 0.00316 µM): 11.9% | viability, T/C (second compound 0.316 µM, first compound 0.01 µM): 9.03% | viability, T/C (second compound 0.316 µM, first compound 0.0316 µM): 7.3% | viability, T/C (second compound 1 µM, first compound 0.0001 µM): 30.1% | viability, T/C (second compound 1 µM, first compound 0.000316 µM): 17.7% | viability, T/C (second compound 1 µM, first compound 0.001 µM): 13.1% | viability, T/C (second compound 1 µM, first compound 0.00316 µM): 9.44% | viability, T/C (second compound 1 µM, first compound 0.01 µM): 7.15% | viability, T/C (second compound 1 µM, first compound 0.0316 µM): 6.35% | viability, T/C (second compound 3.16 µM, first compound 0.0001 µM): 22.9% | viability, T/C (second compound 3.16 µM, first compound 0.000316 µM): 15.7% | viability, T/C (second compound 3.16 µM, first compound 0.001 µM): 11.9% | viability, T/C (second compound 3.16 µM, first compound 0.00316 µM): 8.12% | viability, T/C (second compound 3.16 µM, first compound 0.01 µM): 7.15% | viability, T/C (second compound 3.16 µM, first compound 0.0316 µM): 5.35% | viability, T/C (second compound 10 µM, first compound 0.0001 µM): 18.3% | viability, T/C (second compound 10 µM, first compound 0.000316 µM): 14.1% | viability, T/C (second compound 10 µM, first compound 0.001 µM): 9.59% | viability, T/C (second compound 10 µM, first compound 0.00316 µM): 7.02% | viability, T/C (second compound 10 µM, first compound 0.01 µM): 5.62% | viability, T/C (second compound 10 µM, first compound 0.0316 µM): 4.49%
